# Measured values: US7741327B2 (Hoffmann-La Roche Inc., priority 2008, dated 2010)
# Target: T1, Recombinant human liver GK1 (GST-GK) (Homo sapiens, UniProt P35557)
# T1 construct: made in house; host or cells: E. coli
# T1 sequence (P35557 1-466 isoform P35557-2): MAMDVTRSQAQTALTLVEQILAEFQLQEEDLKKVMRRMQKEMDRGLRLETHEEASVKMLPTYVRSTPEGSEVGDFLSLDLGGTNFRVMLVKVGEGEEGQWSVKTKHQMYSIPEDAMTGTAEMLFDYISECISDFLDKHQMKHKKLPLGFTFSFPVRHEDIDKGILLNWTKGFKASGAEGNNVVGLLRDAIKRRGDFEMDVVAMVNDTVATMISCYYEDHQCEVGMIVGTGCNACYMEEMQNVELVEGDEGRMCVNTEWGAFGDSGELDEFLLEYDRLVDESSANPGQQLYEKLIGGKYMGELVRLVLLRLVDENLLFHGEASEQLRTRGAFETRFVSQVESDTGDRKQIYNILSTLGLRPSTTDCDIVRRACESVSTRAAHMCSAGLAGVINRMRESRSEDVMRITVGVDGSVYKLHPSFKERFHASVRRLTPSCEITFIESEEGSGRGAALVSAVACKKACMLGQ
# Test: In vitro glucokinase activity (G6PDH-coupled NADH assay)
# Type: biochemical
# Conditions: 30° C., 5 mM D-glucose, 10% DMSO
# Procedure: Glucokinase In Vitro Assay Protocol: Glucokinase (GK) was assayed by coupling the production of glucose-6-phosphate to the generation of NADH with glucose-6-phosphate dehydrogenase (G6PDH, 0.75-1 kunits/mg; Boehringer Mannheim, Indianapolis, Ind.) from Leuconostoc mesenteroides as the coupling enzyme (Scheme 2).
# Recombinant human liver GK1 was expressed in E. coli as a glutathione S-transferase fusion protein (GST-GK) [Liang et al, 1995] and was purified by chromatography over a glutathione-Sepharose 4B affinity column using the procedure provided by the manufacturer (Amersham Pharmacia Biotech, Piscataway, N.J.).
# The assay was conducted at 30° C. in a flat bottom 96-well tissue culture plate from Costar (Cambridge, Mass.) with a final incubation volume of 120 μL. The incubation reaction contained the following: 25 mM Hepes buffer (pH 7.1), 25 mM KCl, 5 mM D-glucose, 1 mM ATP, 1.8 mM NAD, 2 mM MgCl2, 1 μM sorbitol-6-phosphate, 1 mM dithiothreitol, test drug or 10% dimethylsulfoxide, ˜7 units/ml G6PDH, and GK (see below). All organic reagents were >98% pure and were from Boehringer Mannheim with the exceptions of D-glucose and Hepes which were from Sigma Chemical Co, St Louis, Mo. Test compounds were dissolved in dimethylsulfoxide and were added to the incubation reaction minus GST-GK in a volume of 12 μL to yield a final dimethylsulfoxide concentration of 10%. This mix was pre-incubated in the temperature controlled chamber of a SPECTRAmax 250 microplate spectrophotometer (Molecular Devices Corporation, Sunnyvale, Calif.) for 10 min to allow temperature equilibrium and then the reaction was started by the addition of 20 μL GST-GK.
# After addition of enzyme, the increase in optical density (OD) at 340 nm was monitored spectrophotometrically to determine the rate of change (OD340 per min). The GK activity (OD340/min) in control wells (10% DMSO minus GK activators) was compared with the activity in wells containing test GK activators, and the concentration of activator that produced a 50% increase in the activity of GK, i.e., the SC1.5, was calculated. The table below provides the in vitro glucokinase activity for the compounds in the Examples: […]
row,SC1.5 (concentration of activator that produced a 50% increase in the activity of GK) [µM],SMILES
1,0.163,"CC(C)C[C@@H](C(=O)Nc1ccn(C[C@@H](O)CO)n1)N1CC(Oc2cccc(Br)c2F)=CC1=O [Example 129, (S)-2-[4-(3-Bromo-2-fluoro-phenoxy)-2-oxo-2,5-dihydro-pyrrol-1-yl]-4-methyl-pentanoic acid [1-((R)-2,3-dihydroxy-propyl)-1H-pyrazol-3-yl]-amide]"
2,0.05,"O=C(Nc1ccn(C[C@@H](O)CO)n1)[C@H](CC1CCC1)N1CC(Oc2ccccc2Cl)=CC1=O [Example 176, (S)-2-[4-(2-chloro-phenoxy)-2-oxo-2,5-dihydro-pyrrol-1-yl]-3-cyclobutyl-N-[1-((R)-2,3-dihydroxy-propyl)-1H-pyrazol-3-yl]-propionamide]"
3,0.006,"CCOc1ccc(F)c(OC2=CC(=O)N([C@@H](CC3CCOCC3)C(=O)Nc3ccn(CC(C)(C)O)n3)C2)c1F (single isomer, unassigned) [Example 257]"
4,0.036,"COC(=O)c1ccc(NC(=O)[C@H](CC2CCCCC2)N2CC(Oc3c(F)ccc(Cl)c3F)=CC2=O)nc1 [Example 73, 6-{(S)-2-[4-(3-Chloro-2,6-difluoro-phenoxy)-2-oxo-2,5-dihydro-pyrrol-1-yl]-3-cyclohexyl-propionylamino}-nicotinic acid methyl ester]"
5,0.578,"CC(C)C[C@@H](C(=O)Nc1ccn(C[C@@H](O)CO)n1)N1CC(Oc2ccc(F)cc2F)=CC1=O [Example 102, (S)-2-[4-(2,4-Difluoro-phenoxy)-2-oxo-2,5-dihydro-pyrrol-1-yl]-4-methyl-pentanoic acid [1-((R)-2,3-dihydroxy-propyl)-1H-pyrazol-3-yl]-amide]"
6,0.072,"Cc1ccc(F)c(OC2=CC(=O)N([C@@H](CC(C)C)C(=O)Nc3ccn(C[C@@H](O)CO)n3)C2)c1 [Example 103, (S)-2-[4-(2-Fluoro-5-methyl-phenoxy)-2-oxo-2,5-dihydro-pyrrol-1-yl]-4-methyl-pentanoic acid [1-((R)-2,3-dihydroxy-propyl)-1H-pyrazol-3-yl]-amide]"
7,0.63,"CC(C)C[C@@H](C(=O)Nc1ncc(Cl)s1)N1CC(Oc2ccccc2Cl)=CC1=O [Example 190, (S)-2-[4-(2-chloro-phenoxy)-2-oxo-2,5-dihydro-pyrrol-1-yl]-4-methyl-pentanoic acid (5-chloro-thiazol-2-yl)-amide]"
8,0.26,"Cc1cccc(OC2=CC(=O)N([C@@H](CC(C)C)C(=O)Nc3ccn(C[C@@H]4COC(C)(C)O4)n3)C2)c1F [Example 130, (S)-2-[4-(2-Fluoro-3-methyl-phenoxy)-2-oxo-2,5-dihydro-pyrrol-1-yl]-4-methyl-pentanoic acid [1-((R)-2,2-dimethyl-[1,3]dioxolan-4-yl-methyl)-1H-pyrazol-3-yl]-amide]"
9,0.034,"CC(C)(O)Cn1ccc(NC(=O)[C@H](CC2CCCCC2)N2CC(Oc3cccc(F)c3)=CC2=O)n1 [Example 206, (S)-3-cyclohexyl-2-[4-(3-fluoro-phenoxy)-2-oxo-2,5-dihydro-pyrrol-1-yl]-N-[1-(2-hydroxy-2-methyl-propyl)-1H-pyrazol-3-yl]-propionamide]"
10,1.388,"CC(C)OCCn1ccc(NC(=O)[C@H](CC2CCCC2)N2CC(OC3CCCC3)=CC2=O)n1 [Example 20, (S)-3-Cyclopentyl-N-[1-(2-isopropoxy-ethyl)-1H-pyrazol-3-yl]-2-(4-cyclopentyloxy-2-oxo-2,5-dihydro-pyrrol-1-yl)-propionamide]"
11,0.055,"CC(C)(O)Cn1ccc(NC(=O)[C@H](CC2CCCCC2)N2CC(Oc3cccc(OC(F)(F)F)c3)=CC2=O)n1 [Example 211, (S)-3-cyclohexyl-N-[1-(2-hydroxy-2-methyl-propyl)-1H-pyrazol-3-yl]-2-[2-oxo-4-(3-trifluoromethoxy-phenoxy)-2,5-dihydro-pyrrol-1-yl]-propionamide]"
12,4.538,"CC(F)(F)C[C@@H](C(=O)Nc1ccn(C[C@@H](O)CO)n1)N1CC(Oc2ccccc2Cl)=CC1=O [Example 218, (S)-2-[4-(2-Chloro-phenoxy)-2-oxo-2,5-dihydro-pyrrol-1-yl]-4,4-difluoro-pentanoic acid [1-((R)-2,3-dihydroxy-propyl)-1H-pyrazol-3-yl]-amide]"
13,4.062,"COC[C@H](C)OC1=CC(=O)N([C@@H](CC2CCCC2)C(=O)Nc2ccn(CC(C)(C)O)n2)C1 [Example 13, (S)-3-Cyclopentyl-N-[1-(2-hydroxy-2-methyl-propyl)-1H-pyrazol-3-yl]-2-[4-((S)-2-methoxy-1-methyl-ethoxy)-2-oxo-2,5-dihydro-pyrrol-1-yl]-propionamide]"
14,0.823,"CC(C)C[C@@H](C(=O)Nc1ccn(CC(C)(C)O)n1)N1CC(Oc2cccc(CC(C)(C)O)c2)=CC1=O [Example 236, (S)-2-{4-[3-(2-Hydroxy-2-methyl-propyl)-phenoxy]-2-oxo-2,5-dihydro-pyrrol-1-yl}-4-methyl-pentanoic acid [1-(2-hydroxy-2-methyl-propyl)-1H-pyrazol-3-yl]-amide]"
15,0.21,"CC(C)C[C@@H](C(=O)Nc1ccn(C[C@@H]2COC(C)(C)O2)n1)N1CC(Oc2cccc(C3CC3)c2F)=CC1=O [Example 146, (S)-2-[4-(3-Cyclopropyl-2-fluoro-phenoxy)-2-oxo-2,5-dihydro-pyrrol-1-yl]-4-methyl-pentanoic acid [1-((R)-2,2-dimethyl-[1,3]dioxolan-4-yl-methyl)-1H-pyrazol-3-yl]-amide]"
16,0.007,"CSc1ccccc1OC1=CC(=O)N([C@@H](CC2CCCCC2)C(=O)Nc2ccn(CC(C)(C)O)n2)C1 [Example 196, (S)-3-cyclohexyl-N-[1-(2-hydroxy-2-methyl-propyl)-1H-pyrazol-3-yl]-2-[4-(2-methylsulfanyl-phenoxy)-2-oxo-2,5-dihydro-pyrrol-1-yl]-propionamide]"
17,0.093,"CC1(C)OC[C@@H](Cn2ccc(NC(=O)[C@H](CC3CCCC3)N3CC(Oc4c(F)cccc4F)=CC3=O)n2)O1 [Example 87, (S)-3-Cyclopentyl-2-[4-(2,6-difluoro-phenoxy)-2-oxo-2,5-dihydro-pyrrol-1-yl]-N-[1-((R)-2,2-dimethyl-[1,3]dioxolan-4-yl-methyl)-1H-pyrazol-3-yl]-propionamide]"
18,0.056,"CC[C@H](C)C[C@@H](C(=O)Nc1ccn(C[C@@H](O)CO)n1)N1CC(Oc2ccccc2Cl)=CC1=O (single isomer, unassigned) [Example 251]"
19,3.478,"CCc1nsc(NC(=O)[C@H](CC(C)C)N2CC(Oc3ccccc3Cl)=CC2=O)n1 [Example 110, (S)-2-[4-(2-Chloro-phenoxy)-2-oxo-2,5-dihydro-pyrrol-1-yl]-4-methyl-pentanoic acid (3-ethyl-[1,2,4]thiadiazol-5-yl)-amide]"
20,0.055,"Cn1ccc(NC(=O)[C@H](CC2CCCCC2)N2CC(Oc3c(F)cccc3Cl)=CC2=O)n1 [Example 68, (S)-2-[4-(2-Chloro-6-fluoro-phenoxy)-2-oxo-2,5-dihydro-pyrrol-1-yl]-3-cyclohexyl-N-(1-methyl-1H-pyrazol-3-yl)-propionamide]"
21,0.01,CC1(C)OC[C@@H](Cn2ccc(NC(=O)[C@H](CC3CCCCC3)N3CC(Oc4ccccc4Cl)=CC3=O)n2)O1 [Example 62]
